Measured values as given in BindingDB's records for doi:10.1016/j.bmcl.2006.08.080 (Johnson & Johnson Pharmaceutical, 2006).

These compounds were tested against T1, Aurora kinase A (Mus musculus, UniProt P97477) (assay: Aurora Kinase Inhibition Assay). Conditions: pH 7.5; 22 °C.
T1 sequence (P97477 whole entry): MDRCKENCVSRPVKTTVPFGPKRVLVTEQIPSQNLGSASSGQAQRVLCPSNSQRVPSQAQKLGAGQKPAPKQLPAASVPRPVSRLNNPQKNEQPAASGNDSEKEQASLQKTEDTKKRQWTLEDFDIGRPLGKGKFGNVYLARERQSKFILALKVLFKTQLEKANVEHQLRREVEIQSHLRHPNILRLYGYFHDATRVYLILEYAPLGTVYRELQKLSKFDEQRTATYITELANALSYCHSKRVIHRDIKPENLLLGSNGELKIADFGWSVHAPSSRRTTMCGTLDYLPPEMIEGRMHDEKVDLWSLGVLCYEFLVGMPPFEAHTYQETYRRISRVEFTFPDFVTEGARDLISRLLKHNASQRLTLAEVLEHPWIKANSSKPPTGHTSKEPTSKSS
Procedure: The compounds were tested for their ability to inhibit the phosphorylation of serine 10 of histone-H3 by purified recombinant murine Aurora-A enzyme. The phosphorylation of serine 10 was detected colorimetrically using Phospho-Histone H3 (Ser10) (6G3) Mouse mAb (9706, Cell Signaling Technologies, Danvers, MA).

SMILES | IC50 [nM]
CN1CCN(c2cccc(Nc3ncc4ccn(-c5cccc(C(N)=O)c5)c4n3)c2)CC1 [3-(2-{[3-(4-methylpiperazin-1-yl)phenyl]amino}-7H-pyrrolo[2,3-d]pyrimidin-7-yl)benzamide] | 11
CN1CCN(c2cccc(Nc3ncc4ccn(-c5cccc(C#N)c5)c4n3)c2)CC1 [3-(2-{[3-(4-methylpiperazin-1-yl)phenyl]amino}-7H-pyrrolo[2,3-d]pyrimidin-7-yl)benzonitrile] | 13
O=S1(=O)CCN(c2ccc(Nc3ncc4ccn(-c5ccccn5)c4n3)cc2)CC1 [4-(4-{[7-(pyridin-2-yl)-7H-pyrrolo[2,3-d]pyrimidin-2-yl]amino}phenyl)-1,4-thiomorpholine-1,1-dione] | 0.8
O=S1(=O)CCN(c2ccc(Nc3ncc4ccn(C5CCCCC5)c4n3)cc2)CC1 [4-[4-({7-cyclohexyl-7H-pyrrolo[2,3-d]pyrimidin-2-yl}amino)phenyl]-1,4-thiomorpholine-1,1-dione] | 12
CN1CCN(c2ccc(Nc3ncc4ccn(C5Cc6ccccc6C5)c4n3)cc2)CC1 [7-(2,3-dihydro-1H-inden-2-yl)-N-[4-(4-methylpiperazin-1-yl)phenyl]-7H-pyrrolo[2,3-d]pyrimidin-2-amine] | 18
CN1CCN(c2cccc(Nc3ncc4ccn(-c5cccc(S(C)(=O)=O)c5)c4n3)c2)CC1 [7-(3-methanesulfonylphenyl)-N-[3-(4-methylpiperazin-1-yl)phenyl]-7H-pyrrolo[2,3-d]pyrimidin-2-amine] | 10
CN1CCN(c2ccc(Nc3ncc4ccn(-c5cccc(S(C)(=O)=O)c5)c4n3)cc2)CC1 [7-(3-methanesulfonylphenyl)-N-[4-(4-methylpiperazin-1-yl)phenyl]-7H-pyrrolo[2,3-d]pyrimidin-2-amine] | 9
COc1cccc(-n2ccc3cnc(Nc4cccc(N5CCN(C)CC5)c4)nc32)c1 [7-(3-methoxyphenyl)-N-[3-(4-methylpiperazin-1-yl)phenyl]-7H-pyrrolo[2,3-d]pyrimidin-2-amine] | 6
COc1cccc(-n2ccc3cnc(Nc4ccc(N5CCN(C)CC5)cc4)nc32)c1 [7-(3-methoxyphenyl)-N-[4-(4-methylpiperazin-1-yl)phenyl]-7H-pyrrolo[2,3-d]pyrimidin-2-amine] | 18
c1cc(N2CCOCC2)ccc1Nc1ncc2ccn(C3CCCCC3)c2n1 [7-cyclohexyl-N-[4-(morpholin-4-yl)phenyl]-7H-pyrrolo[2,3-d]pyrimidin-2-amine] | 49
CN1CCN(c2ccc(Nc3ncc4ccn(C5CC6CCC5C6)c4n3)cc2)CC1 (stereo not given) [7-{bicyclo[2.2.1]heptan-2-yl}-N-[4-(4-methylpiperazin-1-yl)phenyl]-7H-pyrrolo[2,3-d]pyrimidin-2-amine] | 39
CN1CCN(c2cccc(Nc3ncc4ccn(-c5ccccn5)c4n3)c2)CC1 [N-[3-(4-methylpiperazin-1-yl)phenyl]-7-(pyridin-2-yl)-7H-pyrrolo[2,3-d]pyrimidin-2-amine] | 5
CN1CCN(c2cccc(Nc3ncc4ccn(-c5cccnc5)c4n3)c2)CC1 [N-[3-(4-methylpiperazin-1-yl)phenyl]-7-(pyridin-3-yl)-7H-pyrrolo[2,3-d]pyrimidin-2-amine] | 12
CC(C)c1cccc(-n2ccc3cnc(Nc4cccc(N5CCN(C)CC5)c4)nc32)c1 [N-[3-(4-methylpiperazin-1-yl)phenyl]-7-[3-(propan-2-yl)phenyl]-7H-pyrrolo[2,3-d]pyrimidin-2-amine] | 29
CN1CCN(c2cccc(Nc3ncc4ccn(-c5ccccc5)c4n3)c2)CC1 [N-[3-(4-methylpiperazin-1-yl)phenyl]-7-phenyl-7H-pyrrolo[2,3-d]pyrimidin-2-amine] | 3
CN1CCN(c2ccc(Nc3ncc4ccn(-c5cccnc5)c4n3)cc2)CC1 [N-[4-(4-methylpiperazin-1-yl)phenyl]-7-(pyridin-3-yl)-7H-pyrrolo[2,3-d]pyrimidin-2-amine] | 13
COc1cc2c(Nc3ccc(NC(=O)c4ccccc4)cc3)ncnc2cc1OCCCN1CCOCC1 [N-[4-({6-methoxy-7-[3-(morpholin-4-yl)propoxy]quinazolin-4-yl}amino)phenyl]benzamide] | 39
CN1CCN(c2cccc(Nc3ncc4ccn(-c5cccc(C(=O)NC6CCCC6)c5)c4n3)c2)CC1 [N-cyclopentyl-3-(2-{[3-(4-methylpiperazin-1-yl)phenyl]amino}-7H-pyrrolo[2,3-d]pyrimidin-7-yl)benzamide] | 820
COCCN1CCN(Nc2ncc3ccn(C4CCCCC4)c3n2)CC1 [N-{7-cyclohexyl-7H-pyrrolo[2,3-d]pyrimidin-2-yl}-4-(2-methoxyethyl)piperazin-1-amine] | 6

These compounds were tested against Receptor-type tyrosine-protein kinase FLT3 (Homo sapiens, UniProt P36888) (assay: FLT3 Inhibition Assay). Conditions: not given.
Receptor-type tyrosine-protein kinase FLT3, sequence (P36888 whole entry, looked up): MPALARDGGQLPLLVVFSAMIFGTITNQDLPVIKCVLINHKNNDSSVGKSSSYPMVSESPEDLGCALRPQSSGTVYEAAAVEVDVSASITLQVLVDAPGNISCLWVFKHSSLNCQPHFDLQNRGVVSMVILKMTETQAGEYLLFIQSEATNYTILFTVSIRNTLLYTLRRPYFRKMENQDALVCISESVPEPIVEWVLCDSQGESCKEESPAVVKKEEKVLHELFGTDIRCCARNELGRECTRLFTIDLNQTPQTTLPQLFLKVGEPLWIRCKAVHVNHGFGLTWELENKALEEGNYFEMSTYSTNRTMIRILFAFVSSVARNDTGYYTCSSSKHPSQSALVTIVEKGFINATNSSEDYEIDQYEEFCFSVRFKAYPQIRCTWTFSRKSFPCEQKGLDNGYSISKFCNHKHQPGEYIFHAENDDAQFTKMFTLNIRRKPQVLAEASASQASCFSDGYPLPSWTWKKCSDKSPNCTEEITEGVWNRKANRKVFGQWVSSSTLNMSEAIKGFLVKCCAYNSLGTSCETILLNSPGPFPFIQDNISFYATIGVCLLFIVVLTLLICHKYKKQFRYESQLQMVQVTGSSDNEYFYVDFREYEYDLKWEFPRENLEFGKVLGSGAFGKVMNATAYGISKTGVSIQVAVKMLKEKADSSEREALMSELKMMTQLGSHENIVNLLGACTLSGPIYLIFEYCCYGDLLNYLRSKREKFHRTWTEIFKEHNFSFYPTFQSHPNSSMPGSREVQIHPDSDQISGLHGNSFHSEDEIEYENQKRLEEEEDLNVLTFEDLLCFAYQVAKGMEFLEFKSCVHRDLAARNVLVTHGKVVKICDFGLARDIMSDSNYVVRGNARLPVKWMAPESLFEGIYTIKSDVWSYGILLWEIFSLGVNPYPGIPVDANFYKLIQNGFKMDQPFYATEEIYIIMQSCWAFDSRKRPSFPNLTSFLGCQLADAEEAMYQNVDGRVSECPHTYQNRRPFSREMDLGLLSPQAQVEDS
Procedure: The compounds were tested for their ability to inhibit the phosphorylation of poly(Glu:Tyr) by purified recombinant human FLT3. The extent of phosphorylation was quantitated by a fluorescent polarization competition immunoassay (Ex: 485 nm, Em:530 nm) using an anti-phosphotyrosine antibody and a phosphotyrosine tracer (Green Tyrosine Kinase Assay Kit, PanVera P2837).

SMILES | IC50 [nM]
O=S1(=O)CCN(c2ccc(Nc3ncc4ccn(-c5ccccn5)c4n3)cc2)CC1 [4-(4-{[7-(pyridin-2-yl)-7H-pyrrolo[2,3-d]pyrimidin-2-yl]amino}phenyl)-1,4-thiomorpholine-1,1-dione] | < 1
